This note sets out measurements from ChEMBL document CHEMBL1145474, “Selective phosphorylation of antiviral drugs by vaccinia virus thymidine kinase” (Antimicrob Agents Chemother, 2007).

Where only a bound is given, the exact number is not on record here.

As a reminder, the EC50 is the concentration giving half of the maximal effect. A higher EC50 goes with a less potent agent. By Km is commonly meant the concentration of substrate that gives half-maximal velocity.

In series [1] the test system is Cowpox virus. Description: microbe, parasite or virus in culture. The format is functional, organism-based. The following applies: HFF, 48 h.
Series [2] relates to Human alphaherpesvirus 2. Put plainly: microbe, parasite or virus in culture. The following applies: Human alphaherpesvirus 2, MS, HFF, 72 h. In kind it is functional, organism-based.
A further series has as its system Human alphaherpesvirus 3. Put plainly: microbe, parasite or virus in culture. The format is functional, organism-based. The following applies: Human alphaherpesvirus 3, Ellen, HFF, 240 h.
The subject of series [3] is Human alphaherpesvirus 2. Put plainly: microbe, parasite or virus in culture. In kind it is functional, organism-based. The following applies: Human alphaherpesvirus 2, AG3, HFF, 72 h.
The subject of series [4] is Human alphaherpesvirus 1. Put plainly: microbe, parasite or virus in culture. The format is functional, organism-based. The following applies: Human alphaherpesvirus 1, DM2.1, HFF, 72 h.
Series [5] concerns Human alphaherpesvirus 1. Description: microbe, parasite or virus in culture. The following applies: Human alphaherpesvirus 1, E377, HFF, 72 h. The format is functional, organism-based.
The subject of series [6] is Cowpox virus. Description: microbe, parasite or virus in culture. The format is functional, organism-based. The following applies: HFF, 48 h. The source holds these as a separate data set.
Series [7] concerns Cowpox virus. Put plainly: microbe, parasite or virus in culture. The format is functional, organism-based. The following applies: Brighton, HFF, 1 h.
The next series deals with Vaccinia virus. Description: microbe, parasite or virus in culture. The format is functional, organism-based. The following applies: Orthopoxvirus vaccinia, HFF, 1 h.
Substrate in series [8]: CC1(C)CC(=O)C2=C(C1)OC(N)=C(C#N)C2c1cn([C@H]2C[C@H](O)[C@@H](CO)O2)c(=O)[nH]c1=O
The following applies: Orthopoxvirus vaccinia; WR.

Substrate in series [9]: CCOC(=O)/C(C#N)=C/c1cn([C@H]2C[C@H](O)[C@@H](CO)O2)c(=O)[nH]c1=O
The following applies: Orthopoxvirus vaccinia; WR.

Substrate in series [10]: O=c1[nH]cc(C(F)(F)F)c(=O)[nH]1
The following applies: Orthopoxvirus vaccinia; WR.

Substrate in series [11]: Nc1nc(=O)n([C@@H]2O[C@H](CO)[C@@H](O)[C@@H]2F)cc1I
The following applies: Orthopoxvirus vaccinia; WR.

Substrate in series [12]: O=c1[nH]c(=O)n([C@H]2C[C@H](O)[C@@H](CO)O2)cc1F
The following applies: Orthopoxvirus vaccinia; WR.

Substrate in series [13]: O=c1[nH]c(=O)n([C@H]2C[C@H](O)[C@@H](CO)O2)cc1Br
The following applies: Orthopoxvirus vaccinia; WR.

Substrate in series [14]: N#CC(C#N)=Cc1cn([C@H]2C[C@H](O)[C@@H](CO)O2)c(=O)[nH]c1=O
The following applies: Orthopoxvirus vaccinia; WR.

Turning to `N#CC1=C(N)OC2=C(C(=O)CCC2)C1c1cn([C@H]2C[C@H](O)[C@@H](CO)O2)c(=O)[nH]c1=O` (stereo partly specified), the concentration giving a half-maximal response (EC50) came to 67 µM in the series on Cowpox virus [1]; 12 µM in the series on Human alphaherpesvirus 2 [2]; 16 µM with Human alphaherpesvirus 3; 12 µM in the series with Human alphaherpesvirus 2 [3]; 13 µM with Human alphaherpesvirus 1 [4]; 8.6 µM in the series with Human alphaherpesvirus 1 [5]. The concentration for a half-maximal effect (EC50) is 1.9 µM in the series on Cowpox virus [6], 2 µM with Cowpox virus [7] and 4.6 µM in the series with Vaccinia virus.

With `O=c1[nH]c(=O)n([C@H]2C[C@H](O)[C@@H](CO)O2)cc1Br`, in the series listed under Homo sapiens, the Km was 46 µM.

For the molecule `Cc1cn([C@H]2C[C@H](O)[C@@H](CO)O2)c(=O)[nH]c1=O`, in the series filed under Homo sapiens, the Km was 23 µM.

Consider `O=c1[nH]c(=O)n([C@H]2C[C@H](O)[C@@H](CO)O2)cc1F`, for which the Km in the series filed under Homo sapiens was 96 µM.

For `O=c1[nH]c(=O)n([C@H]2C[C@H](O)[C@@H](CO)O2)cc1I` [IDOXURIDINE], the Michaelis-Menten constant (Km) in the series listed under Homo sapiens was 38 µM. The concentration giving a half-maximal response (EC50) was 76 µM with Cowpox virus [1], 1.1 µM with Cowpox virus [6], 1.8 µM in the series on Cowpox virus [7] and 5.6 µM in the series with Vaccinia virus.

As to `CCOC(=O)/C(C#N)=C/c1cn([C@H]2C[C@H](O)[C@@H](CO)O2)c(=O)[nH]c1=O`, the Km in the series listed under Homo sapiens was found to be 118 µM. Further, the EC50 in the series on Cowpox virus [1] turned out to be 71 µM; in the series on Human alphaherpesvirus 2 [2] it was 8.3 µM; with Human alphaherpesvirus 3, 48 µM; in the series with Human alphaherpesvirus 2 [3], 11 µM; with Human alphaherpesvirus 1 [4], 16 µM; with Human alphaherpesvirus 1 [5], 7.6 µM. The EC50 in the series on Cowpox virus [6] amounted to 1.9 µM; with Cowpox virus [7], 11 µM; with Vaccinia virus, 18 µM.

As for `Nc1ccn(C[C@@H](CO)OCP(=O)(O)O)c(=O)n1` [CIDOFOVIR], the concentration for a half-maximal effect (EC50) was 16 µM in the series on Cowpox virus [1], 10 µM with Cowpox virus [6], 32 µM in the series on Cowpox virus [7] and 11 µM in the series with Vaccinia virus.

In the case of `O=c1[nH]cc(C(F)(F)F)c(=O)[nH]1`, in the series filed under Homo sapiens, the Km is 47 µM.

Consider `O=c1[nH]c(=O)n([C@@H]2O[C@H](CO)[C@@H](O)[C@@H]2F)cc1I`, for which, in the series listed under Homo sapiens, the Km stood at 66 µM.

For the molecule `CC1(C)CC(=O)C2=C(C1)OC(N)=C(C#N)C2c1cn([C@H]2C[C@H](O)[C@@H](CO)O2)c(=O)[nH]c1=O` (stereo partly specified), the Km in the series listed under Homo sapiens is greater than 200 µM. Moreover, the EC50 with Cowpox virus [1] turned out to be 67 µM; in the series with Human alphaherpesvirus 2 [2] it was 13 µM; with Human alphaherpesvirus 3, 9.2 µM; in the series on Human alphaherpesvirus 2 [3], 14 µM; in the series on Human alphaherpesvirus 1 [4], 17 µM; with Human alphaherpesvirus 1 [5], 7.3 µM. The half-maximal effective concentration (EC50) was determined as 3.1 µM in the series on Cowpox virus [6], 8.4 µM with Cowpox virus [7] and 7.9 µM in the series with Vaccinia virus.

Regarding `Nc1nc2c(ncn2COCCO)c(=O)[nH]1` [ACYCLOVIR], the EC50 in the series with Human alphaherpesvirus 2 [2] was 3.1 µM; in the series on Human alphaherpesvirus 3, 8.5 µM; in the series on Human alphaherpesvirus 2 [3] it was greater than 444 µM; in the series with Human alphaherpesvirus 1 [4], greater than 444 µM; with Human alphaherpesvirus 1 [5] it was 1.3 µM.

`Nc1nc(=O)n([C@@H]2O[C@H](CO)[C@@H](O)[C@@H]2F)cc1I`: the Km in the series listed under Homo sapiens is greater than 135 µM.

Take `N#CC(C#N)=Cc1cn([C@H]2C[C@H](O)[C@@H](CO)O2)c(=O)[nH]c1=O`: the Km in the series listed under Homo sapiens came out at 113 µM. Moreover, the EC50 in the series on Cowpox virus [1] worked out at 46 µM; in the series on Human alphaherpesvirus 2 [2] it was 11 µM; in the series with Human alphaherpesvirus 3, 15 µM; in the series with Human alphaherpesvirus 2 [3], 12 µM; in the series with Human alphaherpesvirus 1 [4] it was 14 µM; with Human alphaherpesvirus 1 [5], 11 µM. In addition, the EC50 turned out to be 1.9 µM in the series with Cowpox virus [6], 21 µM with Cowpox virus [7] and 17 µM with Vaccinia virus.

B1: Thymidine kinase (Vaccinia virus (strain Western Reserve) (VACV) (Vaccinia virus (strainWR))), P68563 (protein)
chain: MNGGHIQLIIGPMFSGKSTELIRRVRRYQIAQYKCVTIKYSNDNRYGTGLWTHDKNNFEALEATKLCDVLESITDFSVIGIDEGQFFPDIVEFCERMANEGKIVIVAALDGTFQRKPFNNILNLIPLSEMVVKLTAVCMKCFKEASFSKRLGEETEIEIIGGNDMYQSVCRKCYIDS
Take B1: the Michaelis constant (Km) in series [8] is 97 µM; in [9], 13 µM; in series [10] it was 14 µM; in series [11], greater than 135 µM; in [12], 113 µM; in series [13], 30 µM. The Km in series [14] turned out to be 9.6 µM.
